Test results: DBAASP
Converted amounts (≈) assume the structure as drawn. Each block holds one compound with its values, some of them ahead of it.

What was measured:
Test in all cases: ≥ marks a high value that may be exact or a test limit, other limits are often not marked, values filed in µg/mL are converted to µM
[1] = test system: Agrobacterium tumefaciens DSM 3129
[2] = test system: Bacillus megaterium QMB 1551
[3] = test system: Bacillus subtilis NRRL B-237
[4] = test system: Bacillus thuringiensis serovar tenebrionis DSM 2803
[5] = test system: Brenneria salicis NCPPB 2530
[6] = test system: Clavibacter michiganensis subsp. insidiosus NCPPB 1109
[7] = test system: Escherichia coli NCTC 9001
[8] = test system: Paenibacillus alvei LMG 6922
[9] = test system: Pseudomonas syringae pv. tomato NCPPB 1106
[10] = test system: Salmonella enterica subsp. enterica serovar Newport
[11] = test system: Salmonella typhimurium ATCC 23565
[12] = test system: Serratia marcescens ATCC 17991
Shigella flexneri CP87 = test system: Shigella flexneri CP87
[13] = test system: Sinorhizobium meliloti ZB314
[14] = test system: Bacillus subtilis DSM 347
[15] = test system: Escherichia coli DSM 1116
[16] = test system: Franconibacter helveticus DSM 18390
[17] = test system: Staphylococcus xylosus DSM 20267
[18] = test system: Acinetobacter baumannii ATCC 17978
[19] = test system: Escherichia coli ATCC 8739
[20] = test system: Staphylococcus aureus HNCMO 112011
[21] = test system: Bacillus cereus CMCC 6303
[22] = test system: Cronobacter sakazakii ATCC 29544
Escherichia coli UB1005 = test system: Escherichia coli UB1005
[23] = test system: Listeria monocytogenes CMCC 54004
[24] = test system: Salmonella enterica subsp. enterica CMCC 47020
[25] = test system: Salmonella enterica subsp. enterica serovar Pullorum C79-13
[26] = test system: Salmonella enterica subsp. enterica serovar Typhi CMCC 50071
[27] = test system: Salmonella enterica subsp. enterica serovar Typhimurium ATCC 14028
[28] = test system: Salmonella enterica subsp. enterica serovar Typhimurium C77-31
[29] = test system: Staphylococcus aureus ATCC 25923
[30] = test system: Staphylococcus aureus CMCC 26074
[31] = test system: Candida albicans ATCC MYA-2876
[32] = test system: Candida tropicalis ATCC 750

MIC [1]: 0.0942 µM (≈ 0.2 µg/mL)
MIC [2]: ≥ 47.1 µM
MIC [3]: ≥ 94.2 µM
MIC [4]: ≥ 94.2 µM
MIC [5]: 0.0094 µM (≈ 0.02 µg/mL)
MIC [6]: ≥ 47.1 µM
MIC [7]: 0.0942 µM (≈ 0.2 µg/mL)
MIC [8]: ≥ 94.2 µM
MIC [9]: 0.0471 µM (≈ 0.1 µg/mL)
MIC [10]: 0.0942 µM (≈ 0.2 µg/mL)
MIC [11]: 0.0471 µM (≈ 0.1 µg/mL)
MIC [12]: ≥ 94.2 µM
MIC (Shigella flexneri CP87): 0.0471 µM (≈ 0.1 µg/mL)
MIC [13]: 0.0094 µM (≈ 0.02 µg/mL)
SMILES: CC[C@H](C)[C@H](NC(=O)[C@@H]1CCCN1C(=O)[C@H](CCCN=C(N)N)NC(=O)[C@H](CC(N)=O)NC(=O)[C@H](CC(N)=O)NC(=O)CN)C(=O)N[C@@H](Cc1ccc(O)cc1)C(=O)N[C@H](C(=O)N1CCC[C@H]1C(=O)N[C@@H](CCC(N)=O)C(=O)N1CCC[C@H]1C(=O)N[C@@H](CCCN=C(N)N)C(=O)N1CCC[C@H]1C(=O)N1CCC[C@H]1C(=O)N[C@@H](Cc1cnc[nH]1)C(=O)N1CCC[C@H]1C(=O)N[C@@H](CCCN=C(N)N)C(=O)N[C@@H](CC(C)C)C(=O)O)[C@@H](C)CC [GNNRPIYIPQPRPPHPRL]

MIC [14]: ≥ 345 µM
MIC [15]: ≥ 345 µM
MIC [16]: ≥ 345 µM
MIC [17]: ≥ 345 µM
SMILES: CC(C)C[C@H](NC(=O)[C@H](CCCCN)NC(=O)[C@H](CC(C)C)NC(=O)[C@H](CCCCN)NC(=O)[C@H](CC(C)C)NC(=O)[C@@H](N)CCCCN)C(N)=O [KLKLKL]

MIC [18]: 25 µM (≈ 66.9 µg/mL)
MIC [19]: 25 µM (≈ 66.9 µg/mL)
MIC [20]: 25 µM (≈ 66.9 µg/mL)
SMILES: CC(C)C[C@H](NC(=O)[C@@H]1CCCN1C(=O)[C@H](CCCN=C(N)N)NC(=O)[C@H](CCCN=C(N)N)NC(=O)[C@H](CS)NC(=O)[C@H](CCC(N)=O)NC(=O)[C@@H](N)CCC(N)=O)C(=O)N[C@@H](Cc1ccc(O)cc1)C(=O)N[C@@H](CS)C(=O)N[C@@H](CCCN=C(N)N)C(=O)N[C@@H](CCCN=C(N)N)C(=O)N[C@@H](CCCN=C(N)N)C(=O)N[C@@H](Cc1c[nH]c2ccccc12)C(=O)N[C@@H](CO)C(=O)N[C@@H](Cc1cnc[nH]1)C(=O)N1CCC[C@H]1C(=O)N[C@@H](CCC(N)=O)C(=O)N[C@@H](Cc1ccccc1)C(=O)N[C@@H](CCC(=O)O)C(=O)N[C@@H](CCCCN)C(=O)O [QQCRRPLYCRRRWSHPQFEK]

MIC [21]: ≥ 64 µM
MIC [22]: 16 µM (≈ 26.6 µg/mL)
MIC (Escherichia coli UB1005): 16 µM (≈ 26.6 µg/mL)
MIC [23]: 2 µM (≈ 3.33 µg/mL)
MIC [24]: ≥ 128 µM
MIC [25]: ≥ 32 µM
MIC [26]: 8 µM (≈ 13.3 µg/mL)
MIC [27]: 32 µM (≈ 53.3 µg/mL)
MIC [28]: ≥ 32 µM
MIC [29]: 256 µM (≈ 426 µg/mL)
MIC [30]: ≥ 64 µM
SMILES: CC[C@H](C)[C@H](NC(=O)[C@H](CCCN=C(N)N)NC(=O)[C@H](CCCN=C(N)N)NC(=O)[C@H](Cc1c[nH]c2ccccc12)NC(=O)[C@@H](N)CCCN=C(N)N)C(=O)N[C@H](C(=O)N[C@H](C(=O)N[C@H](C(=O)N[C@@H](CCCN=C(N)N)C(=O)N[C@H](C(=O)N[C@@H](CCCN=C(N)N)C(=O)N[C@@H](CCCN=C(N)N)C(N)=O)C(C)C)[C@@H](C)CC)C(C)C)C(C)C [RWRRIVVIRVRR]

MIC [31]: ≥ 40 µM
MIC [32]: ≥ 40 µM
SMILES: CC[C@H](C)[C@H](NC(=O)[C@H](Cc1ccc(O)cc1)NC(=O)[C@@H](N)CCCN=C(N)N)C(=O)N[C@@H](Cc1ccc(O)cc1)C(=O)N[C@@H](CC(C)C)C(=O)N[C@@H](CO)C(=O)NCC(=O)N[C@H](C(=O)N[C@@H](CC(=O)O)C(=O)N[C@@H](CCCN=C(N)N)C(=O)N[C@H](C(=O)N[C@H](C(=O)N[C@@H](CCCN=C(N)N)C(=O)N[C@@H](C)C(=O)N[C@@H](CCCCN)C(=O)N[C@@H](CC(C)C)C(=O)NCC(=O)N[C@@H](CCCCN)C(=O)O)[C@@H](C)CC)[C@@H](C)CC)[C@@H](C)O [RYIYLSGTDRIIRAKLGK]
